The values that follow come from patent US9475836B2, “Protopanoxadiol derivative, preparation method thereof and application thereof” (SHANG HAI INNOVATIVE RESEARCH CENTER OF TRADITIONAL CHINESE …, priority 2013, dated 2016).

This experiment deals with CUMS rats. The experiment can be described thus: Rat chronic unpredictable mild stress depression model (CUMS) test, sucrose preference. The experiment is classed as in vivo, Wistar rats. As to conditions: for effect on sucrose water intake of CUMS rats: 0.375 mg/kg. On the procedure:
Rat Chronic Unpredictable Mild Stress Depression Model (CUMS) Test
Variety: Wistar rats; Sex: male; Body Weight: 200 g.
Compounds I and II (being compounds of Examples 1 and 5 respectively), venlafaxine hydrochloride
Experimental method comprises starting CUMS program after adaptively breeding the rats for 1 week.
1) Sucrose preference experiment: all animals were fed with 1% sucrose water within the first 24 h; during the subsequent 24 h, all the animals were simultaneously fed with 1% sucrose water and common drinking water, then fasted with water deprivation for 23 h. Subsequently sucrose preference experiment was performed: simultaneously feeding the animals with 1% sucrose water and common drinking water, and measuring the drinking amounts of sucrose water and common drinking water for animals in 1 h by weighing the drinking water bottles. The animals were grouped evenly according to the animal body weight, liquid consumption amount and sucrose water consumption, and subjected to chronic unpredictable mild stress stimulation.
2) CUMS experiment: the rats were alternately given tens of stress stimulation factors each week, so that the rats cannot predict the stimulation duration of each stress factor and the stimulation to be given subsequently. The stimulation factor includes: flash stimulation, noise stimulation, rat cage inclination; and strange smell environment feeding, fasting, water deprivation.
3) Detection method comprising: detecting liquid consumption amount after food-fasting and water-deprivation for 21 h each week, recording the body weight, total liquid intake, water intake and sucrose water intake of each animal, and calculating sucrose water preference percentage (preference=(sucrose water intake/total liquid intake)×100%) and sucrose water consumption amount per gram of body weight of each rat.

[1] abbreviates: 1.5 mg/kg and 0.75 mg/kg, after the fifth week (P<0.01 or 0.05).

Structures can show the parent of a compound that is named as a salt.

Consider `CC(C)(O)C1CCC(C)(C2CCC3(C)C2C(=NO)CC2C4(C)CCC(=NO)C(C)(C)C4CCC23C)O1` (centres unmarked) [Compound II], for which the “effect on sucrose water intake of CUMS rats” value was “not significant”. Moreover, the “sucrose water intake of CUMS rats as compared to the model group” value under setting [1] is “statistically significant difference”. Regarding `CC(C)=CCCC(C)(O)C1CCC2(C)C1C(=NO)CC1C3(C)CCC(=NO)C(C)(C)C3CCC12C` (centres unmarked) [Compound I], the “effect on sucrose water intake of CUMS rats” value is recorded as “not significant”. Besides, the “sucrose water intake of CUMS rats as compared to the model group” value under setting [1] is “statistically significant difference”. Consider `COc1ccc(C(CN(C)C)C2(O)CCCCC2)cc1` (centres unmarked) [Venlafaxine, venlafaxine hydrochloride, reference compound], for which the “sucrose water intake of CUMS rats as compared to the model group” value (20 mg/kg, during the fifth week (P<0.01)) is reported as “statistically significant difference”.
